What all share (experiment): growth of human tumour cells (NCI), 48 h
Assay [1] concerns HCT-15.
Assay [2] has as its system HL-60.
Assay [3] relates to K562.
The subject of assay [4] is NCI-H23.
Assay [5] relates to NCI-H522.
Assay [6] concerns OVCAR-3.
Assay [7] concerns OVCAR-4.
Assay [8] has as its system OVCAR-8.
In assay [9] the test system is SF-268.
In assay [10] the test system is SK-MEL-2.
Assay [11] relates to SK-OV-3.
The test system of assay [12] is SNB-75.
Assay [13] concerns SNB-78.
Assay [14] relates to TK-10.
The subject of assay [15] is U-251.
Assay [16] has as its system RXF 393.

Each structure is given as a SMILES string.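 Test compounds were applied to cells in 96-well plates for 48 hours at 5 doses. The concentration for 50% growth inhibition is given as GI50.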 Calls of active or inactive are those of the source. No stated cut-off is given here; in the data, active = GI50 up to about 1.1 µM and inactive = higher. Bounds are passed on as bounds.

Regarding `NC(CCCNCc1ccccc1O)C(=O)O` (stereo unspecified), the GI50 in assay [1] was over 100 µM; in [2], > 100 µM (inactive); in assay [3], > 100 µM (inactive); in assay [4] it was > 100 µM (inactive); in [5] it was > 100 µM (inactive); in assay [6], > 100 µM (inactive). Also, the GI50 in assay [7], in assay [8], in [9], in assay [10], in [11] and in [12] was > 100 µM (inactive) each time. The GI50 in assay [13] and in [14] was > 100 µM (inactive) throughout.

Regarding `CCCCCCCCCCCCCCCCNCCCN(C)CCCN`, the GI50 was 17.2 µM in [1]; 18.6 µM (inactive) in assay [2]; 20 µM (inactive) in [3]; 18.9 µM (inactive) in [4]; 17.3 µM (inactive) in [5]; 19.5 µM (inactive) in assay [6]. Moreover, the GI50 in [7] was 18.8 µM (inactive); in assay [8], 20.7 µM (inactive); in assay [9], 18.7 µM (inactive); in [10], 20.8 µM (inactive); in assay [11], 17.3 µM (inactive); in assay [12] it was 18.2 µM (inactive). For the same compound, the values for the GI50 in assay [13], in assay [14] and in assay [15] were 16.9 µM (inactive), 15 µM (inactive) and 17.3 µM (inactive), respectively.

`CCCc1onc(CCC(=O)N(Cc2ccccc2)Cc2ccccc2)c1CC`: the GI50 in [1] is over 100 µM; in [2], > 100 µM (inactive); in [3] it was > 100 µM (inactive); in [4], > 100 µM (inactive); in assay [5] it was > 100 µM (inactive); in [6] it was > 100 µM (inactive). For the same compound, the GI50 in assay [7], in [9], in assay [10], in assay [11], in assay [13] and in [15] was > 100 µM (inactive) each time.

Take `O=C(O)CCC(=O)N1c2ccccc2CC1c1c[nH]c2ccccc12` (stereo unspecified): the GI50 is over 100 µM in assay [1]; > 100 µM (inactive) in [2]; > 100 µM (inactive) in assay [3]; > 100 µM (inactive) in [4]; 76.6 µM (inactive) in assay [5]; > 100 µM (inactive) in assay [6]. Further, the GI50 in [7], in assay [8], in assay [16], in assay [9], in assay [10] and in assay [11] was > 100 µM (inactive) in each case. In addition, the GI50 in [12], in assay [13], in assay [14] and in [15] was > 100 µM (inactive) each time.

As for `CCCCCCCCCCCC1CCCC(C)N1` (stereo unspecified), the GI50 is 38.5 µM in [1]; 10.8 µM (inactive) in [2]; 19.1 µM (inactive) in [3]; 61.9 µM (inactive) in assay [4]; 35.9 µM (inactive) in assay [5]; 72.9 µM (inactive) in assay [6]. Further, the GI50 in assay [7] is 61.2 µM (inactive); in assay [8] it was 80 µM (inactive); in assay [16], 35.8 µM (inactive); in [9], 67.9 µM (inactive); in assay [10], 72.1 µM (inactive); in [11] it was 75.2 µM (inactive). In addition, the GI50 in assay [12] was 65.8 µM (inactive); in assay [13] it was 73.3 µM (inactive); in assay [15], 59.3 µM (inactive).

In the case of `COc1cc(CCc2ccc(OCCN(C)C)cc2)cc(OC)c1OC`, the GI50 in assay [1] is over 100 µM; in assay [2], 33.7 µM (inactive); in [3], 39.5 µM (inactive); in assay [5], 83.8 µM (inactive); in assay [6] it was 64.1 µM (inactive); in assay [7], > 100 µM (inactive). The GI50 in assay [8] is > 100 µM (inactive); in [16] it was 41.8 µM (inactive); in assay [9], > 100 µM (inactive); in assay [12] it was 45.1 µM (inactive); in assay [13], > 100 µM (inactive); in [14] it was 78.9 µM (inactive). Moreover, in [15], the GI50 is > 100 µM (inactive).

On to `Cc1cc(N(CCC#N)CCC#N)ccc1/C=C(\NC(=O)/C=C/c1ccccc1)NC(=O)Nc1ccccc1C`, for which the GI50 in [1] was over 100 µM; in assay [2], > 100 µM (inactive); in assay [3], > 100 µM (inactive); in assay [4], 58.7 µM (inactive); in [6], > 100 µM (inactive); in assay [7], 26.8 µM (inactive). Further, the GI50 in assay [8] was 30.2 µM (inactive); in assay [16] it was 17.2 µM (inactive); in [9], 24.7 µM (inactive); in [10], 38.7 µM (inactive); in assay [13] it was 51.5 µM (inactive); in assay [15] it was 17.1 µM (inactive).

As to `C[C@@]12CC[C@H]3[C@@H]4CCC(=O)N[C@@]4(C)CC[C@@H]3[C@@]1(C)CC[C@H](OC(=O)Cc1ccc(N(CCCl)CCCl)cc1)C2`, the GI50 in assay [1] was 17.6 µM; in assay [3], 19.5 µM (inactive); in [4], 15.1 µM (inactive); in assay [5], 17.7 µM (inactive); in [6] it was 17.9 µM (inactive); in assay [7] it was 18.2 µM (inactive). Moreover, the GI50 was 16.7 µM (inactive) in [8]; 16.5 µM (inactive) in assay [16]; 15.8 µM (inactive) in assay [9]; 51.1 µM (inactive) in assay [10]; 14.1 µM (inactive) in assay [11]; 18.3 µM (inactive) in [12]. Further, the GI50 in assay [13] is 19.5 µM (inactive); in [15] it was 15 µM (inactive).

Source of the values: ChEMBL document CHEMBL1201862, “PubChem BioAssay data set” (2004).
